Measurements from patent US5849735A, “Tricyclic benzazepine vasopressin antagonists” (American Cyanamid Company, priority 1995, dated 1998).

System: vasopressin V2
Assay: Vasopressin Antidiuretic (V2) Response in Conscious Rats with Free Access to Water Drinking Before But Not During the Experiment
Format: in vivo, rat (Sprague-Dawley)
Settings: N=2
From the text: Vasopressin Antidiuretic (V2) Response in Conscious Rats with Free Access to Water Drinking Before But Not During the Experiment Male or female normotensive Sprague-Dawley rats (Charles River Laboratories, Inc., Kingston, N.Y.) of 400-450 g of body weight were supplied with Laboratory Rodent Feed #5001 (PMI Feeds, Inc., Richmond, Ind.) and water ad libitum. On the day of test, rats were placed individually into metabolic cages equipped with stainless steel screens (to separate the feces from the urine) and funnels for collection of urine. Compounds, vehicle, or reference agent was given at various oral doses. During the test, rats were provided with no water or food. After dosing, urine was collected in graduated cylinders for four hours. Urine volume was measured. Urinary osmolality was determined using a Fiske One-Ten Osmometer (Fiske Associates, Norwood, Mass. 02062). An aliquot of each urine collection was analyzed for Na^+,K^+ and Cl^- using ion specific electrodes a in Beckman E3 (Electrolyte 3) analyzer. The vehicle used for testing compounds was 20% dimethylsulfoxide (DMSO) in 2.5% preboiled starch. Compounds were dissolved in DMSO and then diluted in 2.5% corn starch (final concentration of DMSO was 20%). All rats were orally dosed with this mixture at […], by gavage.

Row | SMILES | Osmolality (oral 10 mg/kg) [MOsm/kg] | Urine Volume (oral 10 mg/kg) [ml/4 hrs] | Osmolality (oral 1 mg/kg) [MOsm/kg] | Urine Volume (oral 1 mg/kg) [ml/4 hrs] | Osmolality (oral 3 mg/kg) [MOsm/kg] | Urine Volume (oral 3 mg/kg) [ml/4 hrs]
1 | O=C(Nc1ccc(C(=O)N2Cc3ccccc3Nc3ccccc32)cn1)c1ccccc1-c1ccccc1 [Example 257, N-[5-[(5,11-Dihydro-10H-dibenz[b,e][1,4]diazepin-10-yl)carbonyl]-2-pyridinyl][1,1'-biphenyl]-2-carboxamide] | 317 | 22.5 |  |  |  | 
2 | O=C(Nc1ccc(C(=O)N2Cc3cccnc3Oc3ccccc32)c(Cl)c1)c1ccccc1-c1ccccc1 [Example 67, N-[4-(Pyrido[2,3-b][1,5]benzoxazepin-6(5H)-ylcarbonyl)-3-chlorophenyl][1,1'-biphenyl]-2-carboxamide] | 402 | 21.5 |  |  |  | 
3 | O=C(Nc1ccc(C(=O)N2Cc3ccccc3Cc3ccccc32)c(Cl)c1)c1ccccc1-c1ccccc1 [Example 302, N-[4-[(6,11-Dihydro-5H-dibenz[b,e]azepin-5-yl)carbonyl]-3-chlorophenyl][1,1'-biphenyl]-2-carboxamide] | 356 | 40 |  |  |  | 
4 | O=C(Nc1ccc(C(=O)N2CCc3cn[nH]c3-c3ccccc32)cc1)c1ccccc1-c1ccccc1 [Example 396] | 238 | 21.8 |  |  |  | 
5 | O=C(Nc1ccc(C(=O)N2CCc3cn[nH]c3-c3ccccc32)c(Cl)c1)c1ccccc1-c1ccccc1 [Example 397] | 288 | 29.8 |  |  |  | 
6 | O=C(Nc1ccc(C(=O)N2Cc3ccccc3Oc3ccccc32)c(Cl)c1)c1ccccc1-c1ccccc1 [Example 47, N-[4-(Dibenz[b,f][1,4]oxazepin-10(11H)-ylcarbonyl)-3-chlorophenyl][1,1'biphenyl]-2-carboxamide] | 394 | 22.0 |  |  |  | 
7 | Cc1ccc(F)cc1C(=O)Nc1ccc(C(=O)N2Cc3cscc3Nc3ccccc32)cn1 [Example 400] | 270 | 24.8 |  |  |  | 
8 | Cc1ccc(F)cc1C(=O)Nc1ccc(C(=O)N2Cc3ccccc3Nc3ncccc32)cn1 [Example 352, N-[5-[(6,11-Dihydro-5H-pyrido[2,3-b][1,4]benzodiazepin-5-yl)carbonyl]-2-pyridinyl]-5-fluoro-2-methylbenzamide] | 779 | 9.3 |  |  |  | 
9 | O=C(Nc1ccc(C(=O)N2Cc3ccccc3Nc3ccccc32)c(Cl)c1)c1ccccc1-c1ccccc1 [Example 218, N-[4-[(5,11-Dihydro-10H-dibenz[b,e][1,4]diazepin-10-yl)carbonyl]-3-chlorophenyl][1,1'-biphenyl]-2-carboxamide] | 222 | 34 |  |  |  | 
10 | Cc1ccc(F)cc1C(=O)Nc1ccc(C(=O)N2CCc3cn[nH]c3-c3ccccc32)cn1 [Example 399, N-[5-[(4,5-Dihydropyrazolo[4,3-d][1]benzazepin-6(1H)-yl)carbonyl]-2-pyridinyl]-5-fluoro-2-methylbenzamide] | 404 | 17.0 |  |  |  | 
11 | O=C(Nc1ccc(C(=O)N2Cc3cccnc3Nc3ccccc32)cn1)c1ccccc1-c1ccccc1 [Example 176, N-[5-(6,11-Dihydropyrido[2,3-b][1,5]benzodiazepin-6(5H)-ylcarbonyl)-2-pyridinyl][1,1'-biphenyl]-2-carboxamide] | 567 | 12.8 |  |  |  | 
12 | O=C(Nc1ccc(C(=O)N2Cc3cccnc3Nc3ccccc32)c(Cl)c1)c1ccccc1-c1ccccc1 [Example 134, N-[4-(6,11-Dihydropyrido[2,3-b][1,5]benzodiazepin-6(5H)-ylcarbonyl)-3-chlorophenyl][1,1'-biphenyl]-2-carboxamide] | 333 | 40.5 | 596 | 18.2 | 396 | 28
13 | O=C(Nc1ccc(C(=O)N2Cc3cccnc3Oc3ccccc32)cn1)c1ccccc1-c1ccccc1 [Example 66, N-[5-(Pyrido[2,3-b][1,5]benzoxazepin-6(5H)-ylcarbonyl)-2-pyridinyl][1,1'biphenyl]-2-carboxamide] | 442 | 17.0 |  |  |  | 
14 | O=C(Nc1ccc(C(=O)N2CCc3cn[nH]c3-c3ccccc32)cn1)c1ccccc1-c1ccccc1 [Example 398, N-[5-[(4,5-Dihydropyrazolo[4,3-d][1]benzazepin-6(1H)-yl)carbonyl]-2-pyridinyl][1,1'-biphenyl]-2-carboxamide] | 316 | 20.5 |  |  |  | 
15 | O=C(c1ccc(-c2cccs2)cc1)N1Cc2ccccc2Nc2ccccc21 [Example 404, 5,11-Dihydro-10-[4-(2-thienyl)benzoyl]-10H-dibenz[b,e][1,4]diazepine] | 909 | 6 |  |  |  | 
16 | O=C(Nc1ccc(C(=O)N2Cc3ccccc3Cc3ccccc32)cc1)c1ccccc1-c1ccccc1 [Example 301, N-[4-[(6,11-Dihydro-5H-dibenz[b,e]azepin-5-yl)carbonyl]-phenyl][1,1'-biphenyl]-2-carboxamide] | 363 | 41.5 |  |  |  | 
17 | Cl.O=C(Nc1ccc(C(=O)N2Cc3cccnc3Nc3ccccc32)cc1)c1ccccc1-c1ccccc1 [Example 135, N-[4-(6,11-Dihydropyrido[2,3-b][1,5]benzodiazepin-6(5H)-ylcarbonyl)-phenyl][1,1'-biphenyl]-2-carboxamide, hydrochloride] | 284 | 39.5 | 526 | 19.5 | 391 | 26.8
18 | O=C(Nc1ccc(C(=O)N2Cc3cccnc3Nc3ccccc32)cc1)c1ccccc1-c1ccccc1 [Example 133, N-[4-(6,11-Dihydropyrido[2,3-b][1,5]benzodiazepin-6(5H)-ylcarbonyl)-phenyl][1.1'-biphenyl]-2-carboxamide] | 234 | 27.5 |  |  |  | 
